Test results: ChEMBL document CHEMBL4610060, “Orally bioavailable amine-linked macrocyclic inhibitors of factor XIa” (Bioorg Med Chem Lett, 2020)

Legend:
[1] = Oral bioavailability in Sprague-Dawley rat at 2.27 mg/kg measured upto 24 hrs by LC-MS/MS analysis; format: ADME, organism-based; conditions: in vivo
[2] = Clearance in Sprague-Dawley rat at 1.13 mg/kg, iv or 2.27 mg/kg, po measured upto 24 hrs by LC-MS/MS analysis; format: ADME, organism-based; conditions: in vivo
Plasma = assay: Anticoagulant activity in human plasma assessed as EC1.5 of activated partial thromboplastin time by coagulometric analysis; format: functional
[3] = Permeability across apical to basolateral side in human Caco2 cells; format: ADME, cell-based; conditions: Caco-2, read-out: permeability
[4] = Permeability across basolateral to apical side in human Caco2 cells; format: ADME, cell-based; conditions: Caco-2, read-out: permeability
[5] = Volume of distribution at steady state in Sprague-Dawley rat at 1.13 mg/kg, iv or 2.27 mg/kg, po measured upto 24 hrs by LC-MS/MS analysis; format: ADME, organism-based; conditions: in vivo, read-out: Vdss
[6] = Metabolic stability in human liver microsomes assessed as half life; format: ADME, Microsome
[7] = Metabolic stability in rat liver microsomes assessed as half life; format: ADME, Microsome
[8] = Half life in Sprague-Dawley rat at 1.13 mg/kg, iv or 2.27 mg/kg, po measured upto 24 hrs by LC-MS/MS analysis; format: ADME, organism-based; conditions: in vivo
[9] = AUC in Sprague-Dawley rat at 2.27 mg/kg, po measured upto 24 hrs by LC-MS/MS analysis; format: ADME, organism-based; design: time < 24 hr, dose 2.27 mg/kg, route oral; conditions: in vivo
Coagulation factor XI = Coagulation factor XI (Homo sapiens, UniProt P03951); assay: Inhibition of recombinant human activated coagulation factor XI using pyro-Glu-Pro-Arg-pNA as substrate by spectrophotometry
[10] = Protein binding in rat assessed as unbound fraction; format: ADME
[11] = Volume of distribution at steady state in Sprague-Dawley rat at 0.50 mg/kg, iv or 1.0 mg/kg, po measured upto 24 hrs by LC-MS/MS analysis; format: ADME, organism-based; conditions: in vivo, 0.5 mg/kg, read-out: Vdss
[12] = Half life in Sprague-Dawley rat at 0.50 mg/kg, iv or 1.0 mg/kg, po measured upto 24 hrs by LC-MS/MS analysis; format: ADME, organism-based; conditions: in vivo
[13] = AUC in Sprague-Dawley rat at 1.0 mg/kg, po measured upto 24 hrs by LC-MS/MS analysis; format: ADME, organism-based; design: dose 1 mg/kg, time < 24 hr, route oral; conditions: in vivo
[14] = Clearance in Sprague-Dawley rat at 0.50 mg/kg, iv or 1.0 mg/kg, po measured upto 24 hrs by LC-MS/MS analysis; format: ADME, organism-based; conditions: in vivo, 0.5 mg/kg
[15] = Oral bioavailability in Sprague-Dawley rat at 1.0 mg/kg measured upto 24 hrs by LC-MS/MS analysis; format: ADME, organism-based; conditions: in vivo
[16] = AUC in Sprague-Dawley rat at 0.61 mg/kg, po measured upto 24 hrs by LC-MS/MS analysis; format: ADME, organism-based; design: time < 24 hr, dose 0.61 mg/kg, route oral; conditions: in vivo
[17] = Clearance in Sprague-Dawley rat at 0.31 mg/kg, iv or 0.61 mg/kg, po measured upto 24 hrs by LC-MS/MS analysis; format: ADME, organism-based; conditions: in vivo
[18] = Volume of distribution at steady state in Sprague-Dawley rat at 0.31 mg/kg, iv or 0.61 mg/kg, po measured upto 24 hrs by LC-MS/MS analysis; format: ADME, organism-based; conditions: in vivo, read-out: Vdss
[19] = Oral bioavailability in Sprague-Dawley rat at 0.61 mg/kg measured upto 24 hrs by LC-MS/MS analysis; format: ADME, organism-based; conditions: in vivo
[20] = Half life in Sprague-Dawley rat at 0.31 mg/kg, iv or 0.61 mg/kg, po measured upto 24 hrs by LC-MS/MS analysis; format: ADME, organism-based; conditions: in vivo
[21] = Half life in Sprague-Dawley rat at 0.72 mg/kg, iv or 1.44 mg/kg, po measured upto 24 hrs by LC-MS/MS analysis; format: ADME, organism-based; conditions: in vivo
[22] = Oral bioavailability in Sprague-Dawley rat at 1.44 mg/kg measured upto 24 hrs by LC-MS/MS analysis; format: ADME, organism-based; conditions: in vivo
[23] = Clearance in Sprague-Dawley rat at 0.72 mg/kg, iv or 1.44 mg/kg, po measured upto 24 hrs by LC-MS/MS analysis; format: ADME, organism-based; conditions: in vivo
[24] = Volume of distribution at steady state in Sprague-Dawley rat at 0.72 mg/kg, iv or 1.44 mg/kg, po measured upto 24 hrs by LC-MS/MS analysis; format: ADME, organism-based; conditions: in vivo, read-out: Vdss
[25] = AUC in Sprague-Dawley rat at 1.44 mg/kg, po measured upto 24 hrs by LC-MS/MS analysis; format: ADME, organism-based; design: time < 24 hr, dose 1.44 mg/kg, route oral; conditions: in vivo

Sequence of Coagulation factor XI (P03951 19-387 limits assumed): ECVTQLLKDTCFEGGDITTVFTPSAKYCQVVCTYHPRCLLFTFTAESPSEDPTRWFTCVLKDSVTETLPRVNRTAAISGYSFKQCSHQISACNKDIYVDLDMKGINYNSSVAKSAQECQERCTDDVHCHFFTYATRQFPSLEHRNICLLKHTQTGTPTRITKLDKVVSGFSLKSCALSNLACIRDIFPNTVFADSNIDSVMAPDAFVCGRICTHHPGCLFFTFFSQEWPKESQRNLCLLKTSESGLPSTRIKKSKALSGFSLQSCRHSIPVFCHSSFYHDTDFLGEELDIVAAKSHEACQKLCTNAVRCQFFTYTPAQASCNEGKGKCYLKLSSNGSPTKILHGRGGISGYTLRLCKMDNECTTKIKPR
Sequence of Coagulation factor XI (P03951 388-625 limits assumed): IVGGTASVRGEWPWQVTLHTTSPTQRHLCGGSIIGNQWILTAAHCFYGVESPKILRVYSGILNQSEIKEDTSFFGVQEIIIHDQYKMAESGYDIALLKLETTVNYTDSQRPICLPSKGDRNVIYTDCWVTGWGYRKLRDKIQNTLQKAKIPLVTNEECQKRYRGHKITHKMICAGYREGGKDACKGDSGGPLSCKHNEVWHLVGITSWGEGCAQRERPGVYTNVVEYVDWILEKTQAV

Row | Structure (SMILES) | EC1.5 (Plasma) [µM] | half-life [6] [min] | Ki (Coagulation factor XI) [nM] | other results
1 | COC(=O)Nc1ccc2c(c1)NC(=O)CCCC[C@H](NC(=O)/C=C/c1cc(Cl)ccc1-n1cnnn1)c1nc-2c[nH]1 | 0.3 | 90 |  | bioavailability [1]: < 1%; clearance [2]: 10 mL/min/kg; Papp A→B [3]: < 1.5 ×10⁻⁶ cm/s; Papp B→A [4]: 6.7 ×10⁻⁶ cm/s; Vd [5]: 0.3 L/kg; half-life [7]: 76 min; half-life [8]: 60 min; AUC at 24 h [9]: 0.024 µM·h
2 | COC(=O)Nc1ccc2c(c1)NCCCCC[C@H](NC(=O)/C=C/c1cc(Cl)ccc1-n1cnnn1)c1nc-2c[nH]1 | 6.2 | 6 | 16 | 
3 | CCOC(=O)[C@H]1CCCC[C@H](NC(=O)/C=C/c2cc(Cl)ccc2-n2cnnn2)c2nc(c[nH]2)-c2ccc(NC(=O)OC)cc2N1 | 0.86 | 7 | 0.22 | fraction unbound [10]: < 0.002; Papp A→B [3]: < 1.5 ×10⁻⁶ cm/s; Vd [11]: 0.2 L/kg; Papp B→A [4]: 13.3 ×10⁻⁶ cm/s; half-life [12]: 90 min; half-life [7]: 34 min; AUC at 24 h [13]: 0.478 µM·h; clearance [14]: 2.8 mL/min/kg; bioavailability [15]: 7%
4 | COC(=O)Nc1ccc2c(c1)N[C@@H](CO)CCCC[C@H](NC(=O)/C=C/c1cc(Cl)ccc1-n1cnnn1)c1nc-2c[nH]1 | 0.54 | 10 | 0.61 | 
5 | COC(=O)c1ccc2c(c1)-c1c[nH]c(n1)[C@@H](NC(=O)/C=C/c1cc(Cl)ccc1-n1cnnn1)C/C=C/CCC(=O)N2 |  | 6 | 245 | 
6 | COC(=O)Nc1ccc2c(c1)NC(=O)CC/C=C/C[C@H](NC(=O)/C=C/c1cc(Cl)ccc1-n1cnnn1)c1nc-2c[nH]1 | 0.27 |  |  | Papp A→B [3]: < 1.5 ×10⁻⁶ cm/s
7 | COC(=O)Nc1ccc2c(c1)N[C@@H](C(=O)N(C)C)CCCC[C@H](NC(=O)/C=C/c1cc(Cl)ccc1-n1cnnn1)c1nc-2c[nH]1 | 0.36 | 14 | 0.31 | 
8 | COC(=O)Nc1ccc2c(c1)N[C@@H](C(F)F)CCCC[C@H](NC(=O)/C=C/c1cc(Cl)ccc1-n1cnnn1)c1nc-2c[nH]1 | 2 | 25 | 1.3 | 
9 | COC(=O)Nc1ccc2c(c1)N[C@H](C(F)(F)F)CCCC[C@H](NC(=O)/C=C/c1cc(Cl)ccc1-n1cnnn1)c1nc-2c[nH]1 |  |  | 370 | 
10 | O=C(/C=C/c1cc(Cl)ccc1-n1cnnn1)N[C@H]1C/C=C/CCC(=O)Nc2ccccc2-c2c[nH]c1n2 | 2.9 | 3 | 5.1 | 
11 | O=C(/C=C/c1cc(Cl)ccc1-n1cnnn1)N[C@H]1C/C=C/CCC(=O)Nc2ccc(F)cc2-c2c[nH]c1n2 | 2.5 | 2 | 6 | 
12 | O=C(/C=C/c1cc(Cl)ccc1-n1cnnn1)N[C@H]1C/C=C/CCC(=O)Nc2ccc(C(=O)O)cc2-c2c[nH]c1n2 | 1.7 | 94 | 3.6 | 
13 | COC(=O)Nc1ccc2c(c1)C[C@@H](C(=O)OC)CCCC[C@H](NC(=O)/C=C/c1cc(Cl)ccc1-n1cnnn1)c1nc-2c[nH]1 | 25 | 8 | 24 | 
14 | COC(=O)C[C@H]1CCCC[C@H](NC(=O)/C=C/c2cc(Cl)ccc2-n2cnnn2)c2nc(c[nH]2)-c2ccc(NC(=O)OC)cc2N1 | 1.1 | 4 | 2 | 
15 | O=C(/C=C/c1cc(Cl)ccc1-n1cnnn1)N[C@H]1C/C=C/CCC(=O)Nc2cc(F)ccc2-c2c[nH]c1n2 | 16 | 3 | 12 | 
16 | COC(=O)Nc1ccc2c(c1)N[C@@H](C)CCCC[C@H](NC(=O)/C=C/c1cc(Cl)ccc1-n1cnnn1)c1nc-2c[nH]1 | 5.2 | 7 | 8.3 | 
17 | COC(=O)Nc1ccc2c(c1)N[C@@H](C(=O)O)CCCC[C@H](NC(=O)/C=C/c1cc(Cl)ccc1-n1cnnn1)c1cc-2ccn1 | 7.1 | 99 | 2.6 | 
18 | CCOC(=O)[C@H]1CCCC[C@H](NC(=O)/C=C/c2cc(Cl)ccc2-n2cnnn2)c2cc(ccn2)-c2ccc(NC(=O)OC)cc2N1 | 6.1 | 30 | 2.5 | fraction unbound [10]: 0.008; Papp A→B [3]: < 1.5 ×10⁻⁶ cm/s; Vd [11]: 1.3 L/kg; Papp B→A [4]: 10.1 ×10⁻⁶ cm/s; half-life [12]: 216 min; half-life [7]: 59 min; AUC at 24 h [13]: 1.29 µM·h; clearance [14]: 4.9 mL/min/kg; bioavailability [15]: 41%
19 | O=C(/C=C/c1cc(Cl)ccc1-n1cnnn1)N[C@H]1CCCCC(=O)Nc2ccccc2-c2c[nH]c1n2 | >40 | 6 | 48 | AUC at 24 h [16]: 0.001 µM·h; Papp A→B [3]: < 1.5 ×10⁻⁶ cm/s; clearance [17]: 53 mL/min/kg; Vd [18]: 1.2 L/kg; Papp B→A [4]: 20.5 ×10⁻⁶ cm/s; bioavailability [19]: < 1%; half-life [20]: 30 min
20 | COC(=O)Nc1ccc2c(c1)N[C@@H](C(F)(F)F)CC/C=C/C[C@H](NC(=O)/C=C/c1cc(Cl)ccc1-n1cnnn1)c1nc-2c[nH]1 | >40 | 29 | 53 | 
21 | COC(=O)Nc1ccc2c(c1)N[C@@H](C(F)(F)F)CCCC[C@H](NC(=O)/C=C/c1cc(Cl)ccc1-n1cnnn1)c1cc-2ccn1 | 13 | 95 | 16 | 
22 | COC(=O)Nc1ccc2c(c1)N[C@@H](C(F)(F)F)CCCC[C@H](NC(=O)/C=C/c1cc(Cl)ccc1-n1cnnn1)c1nc-2c[nH]1 | 2.6 | 54 | 1.1 | fraction unbound [10]: 0.002; half-life [21]: 84 min; bioavailability [22]: 9%; clearance [23]: 12 mL/min/kg; half-life [7]: 14 min; Vd [24]: 0.4 L/kg; AUC at 24 h [25]: 0.307 µM·h
